≈ marks a conversion by molar mass, not a printed value. Where “and” joins values, the source holds several entries; their conditions need not be identical. Equal values may be shown once. Read-outs that look alike come from different tables or passages of the source.
Columns and labels:
[1] = analogue esters of testosterone; cited from earlier work
[2] = Solubility evaluation of nandrolone esters in oil / benzyl benzoate / benzyl alcohol mixtures; type: physicochemical; details: 24 °C, oil or lipid, thermodynamic from solid
Experimental: From a pharmaceutical standpoint, the solubility of esterified agents (mg/mL) plays an important role in drug development and delivery. In this context, the solubilities were evaluated in multiple mixtures based on various organic oils: medium-chain triglyceride (MCT), apricot, grape seed oil (GSO) and cottonseed oil. Each solution contains a mixture of benzyl alcohol, benzyl benzoate and oil with a volumetric ratio of 2% benzyl alcohol, 20% benzyl benzoate and the rest of 78% oil.
Solubility evaluation was accomplished at a room temperature of 24 °C in successive additions of small quantities of raw materials (a few mg each step). The mixtures were stirred for up to several hours in order to achieve a completely dissolved solution. In the case that an undissolved excess of raw materials remained in the suspension, small quantities of mixtures were added until the solutions became perfectly homogenous and clear. Two measurements were performed in order to attain a good accuracy; their average was further discussed.

[3] = design: method as in PMID 28522428; details: two polymorphs, respectively; ambient temperature of 20 °C; mixtures of castor oil; cited from earlier work
[4] = design: method as in PMID 817322; details: oral vs subcutaneous; cited from earlier work
[5] = unesterified nandrolone; cited from earlier work
[6] = average over the four oil mixtures (apricot, GSO, MCT, cottonseed), read-out: Solubility (average)
[7] = medium-chain triglyceride mixture: 2% benzyl alcohol, 20% benzyl benzoate, 78% oil (v/v), room temperature 24 °C, average of two measurements, read-out: Solubility, MCT
[8] = apricot oil / benzyl benzoate / benzyl alcohol mixture, apricot oil mixture: 2% benzyl alcohol, 20% benzyl benzoate, 78% oil (v/v), room temperature 24 °C, average of two measurements, read-out: Solubility, APRICOT
[9] = cottonseed oil / benzyl benzoate / benzyl alcohol mixture, cottonseed oil mixture: 2% benzyl alcohol, 20% benzyl benzoate, 78% oil (v/v), room temperature 24 °C, average of two measurements, read-out: Solubility, COTTON
[10] = grape seed oil / benzyl benzoate / benzyl alcohol mixture, grape seed oil mixture: 2% benzyl alcohol, 20% benzyl benzoate, 78% oil (v/v), room temperature 24 °C, average of two measurements, read-out: Solubility, GSO

| SMILES | solubility [2, 6] [mg/mL] | solubility [2, 7] [mg/mL] | solubility [2, 8] [mg/mL] | solubility [2, 9] [mg/mL] | solubility [2, 10] [mg/mL] | other results |
| --- | --- | --- | --- | --- | --- | --- |
| CCCCCCCCCCC(=O)O[C@H]1CC[C@H]2[C@@H]3CCC4=CC(=O)CC[C@]4(C)[C@H]3CC[C@]12C [undecanoate ester of testosterone] |  |  |  |  |  | solubility [1]: 197 mg/mL (≈ 431 mM) |
| CCC(=O)OC1CCC2C3CCC4=CC(=O)CCC4C3CCC12C (centres unmarked) [NPro, Nandrolone propionate] | ~188 (≈ 569 mM) | 187 (≈ 566 mM) | 181 (≈ 548 mM) | 180 (≈ 544 mM) | 204 (≈ 619 mM) |  |
| CCCCCC(=O)O[C@]1(C(C)=O)CC[C@H]2[C@@H]3CCC4=CC(=O)CC[C@]4(C)[C@H]3CC[C@@]21C [hydroxyprogesterone caproate] |  |  |  |  |  | solubility [3]: 278 mg/mL and 301 mg/mL |
| C[C@]12CC[C@H]3[C@@H](CCC4=CC(=O)CC[C@@H]43)[C@@H]1CC[C@@H]2O [nandrolone, Estr-4-en-17β-ol-3-one] |  |  |  |  |  | Potency of the oral form compared with subcutaneous administration [4]: one-tenth; Half-life [5]: a few hours |
| C[C@]12CC[C@H]3[C@@H](CCC4=CC(=O)CC[C@@H]43)[C@@H]1CC[C@@H]2OC(=O)CCc1ccccc1 [NPhp, Nandrolone phenylpropionate] | ~138 (≈ 339 mM) | 148 (≈ 365 mM) | 127 (≈ 313 mM) | 140 (≈ 345 mM) | 137 (≈ 336 mM) |  |
| CCCCCCCCCCC(=O)OC1CCC2C3CCC4=CC(=O)CCC4C3CCC12C (centres unmarked) [NUnd, Nandrolone undecanoate] | ~192 (≈ 433 mM) | 211 (≈ 478 mM) | 183 (≈ 413 mM) | 199 (≈ 450 mM) | 173 (≈ 391 mM) |  |
| C[C@]12CC[C@H]3[C@@H](CCC4=CC(=O)CC[C@@]43C)[C@@H]1CC[C@@H]2OC(=O)CCC1CCCC1 [testosterone cypionate] |  |  |  |  |  | solubility [1]: 255 mg/mL (≈ 618 mM) |

From PMC10609429, “Crystal Structure and Intermolecular Energy for Some Nandrolone Esters” (Molecules, 2023)
